The test system of data set [1] is normal human ectocervical epithelial cells. Nature of the data set: cells. Type of data set: cell-based. As to conditions: 24 h, read-out: Ectocervical cells IC50. Here is the method: (§1) The potential cytotoxicity of aryl phosphate derivatives of bromo-methoxy ZDV in comparison to N-9, against normal human ectocervical and endocervical epithelial cells (Clonetics Corporation, San Diego, Calif.), was measured using MTT (3-[4,5-dimethylthiazol-2-yl]-2,5-diphenyl tetrazolium bromide) cell viability assays (Boehringer Mannheim Corp., Indianapolis, Ind.) [see, D'Cruz O J, et al., Mol Hum Reprod 1999; 5:421-432; D'Cruz O J, et al., Contraception 1999; 59 (in press); and Uckun F M, et al., Antimicrob Agents Chemther 1998; 42:383-388]. Briefly, exponentially growing ectocervical and endocervical epithelial cells were seeded into 96-well plate at a density of 2×10^5 cells/well and incubated for 24 h at 37° C. prior to drug exposure. On the day of treatment, culture medium was carefully aspirated from the wells and replaced with fresh medium containing drug concentrations ranging from 3.9 μM to 1000 μm. Triplicate wells were used for each treatment. The cells were incubated with the various compounds for 24 hours at 37° C. in a humidified 5% CO2 atmosphere. To each well, 10 μl of MTT (0.5 mg/ml final concentration) was added and the plates were incubated at 37° C. for 4 hours to allow MTT to form formazan crystals by reacting with metabolically active cells. The formazan crystals were solubilized overnight at 37° C. in a solution containing 10% SDS in 0.01 M HCl. The absorbance of each well was measured in a microtiter reader at 540 nm and a reference wavelength of 690 nm. To translate the OD540 values into the number of live cells in each well, the OD540 values were compared to those of standard OD540 versus cell number curves generated for each cell line. The percent cell survival was calculated using the formula: % survival=live cell number[test]/live cell number[control]×100. The results were expressed as IC50 values. The IC50 was defined as the concentration required for 50% reduction in cell survival. Two separate experiments were performed in triplicate to assess the potential cytotoxicity of spermicidal WHI-07 analogues against ectocervical and endocervical epithelial cells.

Data set [2] deals with normal human endocervical epithelial cells. Nature of the data set: cells. It is filed as cell-based. The following applies: 24 h, read-out: Endocervical cells IC50. The protocol:
as §1

Data set [3] deals with human sperm in donor semen. Nature of the data set: Sperm immobilizing activity in diluted semen / seminal plasma (Example 3). Type of data set: cell-based. The following applies: 200 μM, 3 hours, CASA. The protocol: Following 3 hours of incubation, duplicate aliquots (4-μl) were used for CASA.
The subject of data set [4] is human sperm binding and penetration of zona-free hamster eggs. Nature of the data set: Zona-free hamster egg penetration assay (Example 6). Type of data set: cell-based. As to conditions: 25 μM or 100 μM, 3 hours preincubation; P<0.001. Here is the method:
The heterologous zona-free hamster egg penetration assay appears to correlate with the in vivo fertilizing capacity of human sperm as well as the ability of human sperm to fertilize intact human eggs in vitro.
15, 471 (1976)]. Motile fractions of sperm (n=4) obtained by 90-45% Percoll gradient centrifugation and wash were resuspended in BWW-3.5% BSA medium (pH 7.4) and divided into aliquots of 20×10^6 sperm/ml and allowed to capacitate for 24 hours. […] After exposure to drugs, the control and WHI-treated sperm suspensions were washed in BWW-3.5% BSA medium. Sperm motility following capacitation and washing in BWW-3.5% BSA medium was assessed by CASA.
Frozen hamster eggs (Charles River Laboratories, Wilmington, Mass.) were thawed and transferred to 35 mm glass bottom microwells (Mat Tek Corporation, Ashland, Mass.) in BWW medium. To remove zona, the washed eggs were treated with 0.05% trypsin (Irvine Scientific) in BWW medium for 20 min and then transferred to BWW-3.5% BSA medium and washed three times. Fifteen to 45 zona-free eggs per test were transferred in 100 μl of BWW-3.5% BSA medium under mineral oil. […] The number of sperm bound per egg, the number of swollen sperm heads per egg, and the percentage of penetrated eggs were determined for control and test sperm. […]

Data set [5] has as its system human sperm. Nature of the data set: Time course of sperm immobilizing activity by CASA (Example 2). Type of data set: cell-based. The following applies: 100 μM. Here is the method: At timed intervals, duplicate aliquots (4-μl) were transferred to two 20 μm Microcell chambers and sperm motility was assessed by CASA.
The subject of data set [6] is HIV-1. Nature of the data set: Anti-HIV-1 activity, p24 antigen assay in infected PBMC (Example 1). Type of data set: cell-based. As to conditions: for IC50: read-out: IC50, HIV-1 replication (p24 antigen). The protocol: Subsequently, cells were cultured in 96-well microtiter plates (100 μl/well; 2×10^6/ml, triplicate wells) in the presence and absence of various concentrations (0.00 μM to 100 μM) of drugs for 7 days. Aliquots of culture supernatants were removed from the wells on the 7th day after infection for p24 antigen enzyme immunoassay as an indication of viral replication. Erice et al. Antimicrob. Agents and Chemother. […] Agents and Chemother. […] Percent inhibition of virus replication was calculated by comparing the p24 antigen values from the test drug-treated infected cells with p24 antigen values from untreated infected cells. […] Cell viability was quantified by a colorimetric […] assay. F. M. Uckun et al., Antimicrob. Agents and Chemother.

In data set [7] the test system is cervicovaginal epithelium of female CD-1 mice. Nature of the data set: Cervicovaginal tissue inflammation after repetitive intravaginal application in mice (Example 8). The following applies: for neutrophils in cervicovaginal squamous epithelia (immunofluorescence): 5% in cream base intravaginally; for mice with inflammatory response or disruption of the squamous epithelia: 5% in cream base intravaginally daily for 5 or 20 days, 10 mice.
Procedure: In particular, 30 female CD-1 mice, 6 months old were randomly divided into two groups (A and B). Each group was further divided into three subgroups of 5 mice. […] After 5 and 20 days respectively, mice were killed by cervical dislocation, and tissues from the genitourinary tract were fixed in 10% buffered formalin. To determine the degree of inflammation and membrane integrity of squamous epithelia, conventional paraffin-embedded sections (6-pm) were prepared and stained with hematoxylin and eosin and observed under 300× magnification with a Leica microscope interfaced with an image analysis system (Scion), and images were transferred to Adobe Photoshop software for printout. The four stages of the estrous cycle were determined histologically.
Following antigen retrieval by heating (93° C. for 10 min in 10 mM sodium citrate buffer, pH 6.0), sections were preincubated with 10% normal goat serum in PBS, treated with optimal dilution (5 μg/ml) of the mAb followed by FITC-conjugated goat anti-rat IgG (Pierce Chemical Co., Rockford, IL). Each incubation step lasted 60 min with 5 min PBS washes between each step. The slides were counterstained with PI (1 μg/ml), washed in deionized water, mounted in anti-fade (BioRad), and visualized by laser confocal microscopy as described above. Negative controls were carried out by replacing the primary mAb with PBS or using rat IgG2 as control mAb

Setting [8] is: MTT, mean ± SD of two experiments.
Where [9] appears, read: Homo sapiens, Epithelial cell, MTT, mean ± SD of two experiments.

Where two headings read alike, the source gives them in different places.

For the compound “5-Bromo-6-methoxy-5,6-dihydro-3′-azidothymidine 5′-[Phenyl methoxyalaninyl phosphate] [WHI-04]”, the IC50 in data set [1] (setting [8]) and in data set [2] (setting [8]) was over 1000 µM in each case.

For “5-Bromo-6-methoxy-5,6-dihydro-3′-azidothymidine-5′-[(p-Fluorophenyl methoxyalaninyl phosphate] [WHI-06]”, the figures for the IC50 in data set [1] (setting [8]) and in data set [2] (setting [8]) were 304 ± 79 µM and 939 ± 157 µM, respectively.

Regarding “5-bromo-6-methoxy-5,6-dihydro-3 ′-azidothymidine-5 ′-(p-methoxyphenyl) methoxyalaninyl phosphate [WHI-05]”, in data set [3], the “sperm motility after direct addition to semen diluted in PBS” value was “complete loss of motility”. For the same compound, the “sperm binding to zona-free eggs” value in data set [4] was “significant inhibition”. In data set [5], the “exposure time to complete sperm immobilization” value amounted to 60 min. For the same compound, the “time required for 50% motility loss of progressively motile sperm” value in data set [5] worked out at 17 min. Besides, the IC50 (usually the concentration at which inhibition is half-maximal) is over 1000 µM in data set [1] (setting [8]); 388 ± 38 µM in data set [2] (setting [8]); 0.05 µM in data set [6] (human peripheral blood mononuclear cells, 7 days).

In the case of `CCCCCCCCCc1ccc(OCCOCCOCCOCCOCCOCCOCCOCCOCCO)cc1` [Compound N-9, nonoxynol-9, reference compound], the concentration for half-maximal inhibition (IC50) in data set [1] (setting [9]) worked out at 22 ± 8 µM; in data set [2] (setting [9]), 16 ± 5 µM; in data set [6] (Human immunodeficiency virus 1, PBMC, 168 h, human peripheral blood mononuclear cells, 7 days) it was 2.19 µM. In addition, the “neutrophils in cervicovaginal squamous epithelia (immunofluorescence)” value in data set [7] is on record as “intense positive staining”. For the same compound, the “mice with inflammatory response or disruption of the squamous epithelia” value in data set [7] is 9 of 10.

In the case of `COC(=O)C(C)NP(=O)(OCC1OC(N2C(=O)NC(=O)C(C)(Br)C2OC)CC1N=[N+]=[N-])Oc1ccc(Br)cc1` (centres unmarked) [WHI-07, 5-Bromo-6-methoxy-5,6-dihydro-3′-azidothymidine-5′-(p-Bromophenyl Methoxyalaninyl Phosphate)], the “sperm motility after direct addition to semen diluted in PBS” value in data set [3] is “complete loss of motility”. In data set [4], the “sperm binding to zona-free eggs” value is recorded as “significant inhibition”. In data set [5], the “exposure time to complete sperm immobilization” value is 30 min and the “time required for 50% motility loss of progressively motile sperm” value was found to be 6 min. Further, in data set [1] (Homo sapiens, Epithelial cell), the concentration for half-maximal inhibition (IC50) is over 1000 µM. The IC50 in data set [2] (Homo sapiens, Epithelial cell) was determined as 312 ± 38 µM. Further, the IC50 in data set [6] (Human immunodeficiency virus 1, PBMC, 168 h) came out at 0.005 µM. The “anti-HIV potency relative to N-9” value in data set [6] (ratio of IC50 values) is listed as 439 fold. Besides, in data set [7], the “neutrophils in cervicovaginal squamous epithelia (immunofluorescence)” value is “absence of neutrophils” and the “mice with inflammatory response or disruption of the squamous epithelia” value was “none of the 10 mice”.

Values taken from patent US6482805B2 (Parker Hughes Institute, priority 1998, dated 2002).
